According to PMC8956739, “A synthetic lipopeptide targeting top-priority multidrug-resistant Gram-negative pathogens” (Nature Communications, 2022):
Like-named read-outs stand apart in the source and are kept apart here.

Key:
A. baumannii AB5075 = experiment: Transcriptomic analysis (RNA-Seq) of bacteria; type: cell-based, Acinetobacter baumannii; details: for logFC (Differential gene expression for all genes), Geneid ABUW_RS00005 / logFC (Differential gene expression for all genes), Geneid ABUW_RS00020 / logFC (Fold change), gene ABUW_RS00010 / logFC (Fold change), gene ABUW_RS00030 / logFC (Fold change), gene ABUW_RS00035 / logFC (Fold change), gene recF (ABUW_RS00015) / 4h_1h logFC (Differential gene expression for all genes), Geneid ABUW_RS00005 / 4h_1h logFC (Differential gene expression for all genes), Geneid ABUW_RS00010 / 4h_1h logFC (Differential gene expression for all genes), Geneid ABUW_RS00015 / 4h_1h logFC (Differential gene expression for all genes), Geneid ABUW_RS00020: RNA-Seq A. baumannii AB5075; for log2FC, gene ABUW_RS01945 (acyl-CoA thioesterase II) / log2FC, gene ABUW_RS02545 (acyl-CoA thioesterase) / log2FC, gene ABUW_RS05045 (acyl-CoA thioesterase) / log2FC, gene ABUW_RS17575 (acyl-CoA thioesterase): pathway Fatty Acid and Lipid Degradation; for 4h_1h logFC (Differential gene expression for all genes), Geneid ABUW_RS00005 / 4h_1h logFC (Differential gene expression for all genes), Geneid ABUW_RS00010 / 4h_1h logFC (Differential gene expression for all genes), Geneid ABUW_RS00015 / 4h_1h logFC (Differential gene expression for all genes), Geneid ABUW_RS00020: 4h vs 1h
Experimental: Mid-log phase A. baumannii AB5075 (~10^8 CFU/mL) in CaMHB was treated with colistin (2 and 8 μg/mL), F287, F319 or F365 (equimolar concentration to colistin) for 1 and 4 h. Total RNA was extracted using TRIzol Reagent (Invitrogen, USA) and RNeasy Mini Kit (Qiagen, Germany). Quality check of RNA samples was conducted with NanoDrop (Thermo Fisher Scientific, USA) and Agilent 2100 Bioanalyzer (Agilent Technologies, USA) for sequencing (150 bp paired-end) at Genewiz (Shanghai, China). Raw reads were aligned to A. baumannii AB5075 genome (GCF_000963815, https://www.ncbi.nlm.nih.gov/assembly/GCF_000963815.1/) using subread-aligner (subread 2.0.1) and summarized by featureCounts (subread 2.0.1). Principal component analysis (PCA) was conducted with mixOmics 6.14.1 in R. Differentially expressed genes were determined using limma 3.46.0 with a combination of fold change ≥ 2 and false discovery rate (FDR, by Benjamini–Hochberg algorithm) adjusted P-value ≤ 0.05 (n = 3). Enrichment analysis of gene differential expression in AB5075 was conducted using BioCyc (A. baumannii AB5075, version 25.5). UpSetR 1.4.0, ComplexHeatmap 2.6.2 and circlize 0.4.13 were used for data visualization. Raw data were deposited in Short Reads Archive (SRA) database under accession numbers SRR15235669-SRR15235725.

Swiss mice, kidney = experiment: Nephrotoxicity in mice (kidney histopathology); type: in vivo, mouse; details: for Kidney histopathology (SQS Score): 72 mg/kg/d subcutaneously in six divided doses every 2 h, n = 3
How it was run: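 Female Swiss mice (7-week-old, 22–28 g) received lipopeptides in saline either s.c. at 12 mg/kg ×6 every 2 h (total 72 mg/kg, n = 3) or i.p. at 20 or 25 mg/kg ×6 every 2 h (total 120 mg/kg, n = 6; 150 mg/kg, n = 3). Right kidney collected 20 h after last dose, fixed in 10% buffered formalin (pH 7.4), histology scored blinded.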

P. aeruginosa ATCC 27853 = type: cell-based, Pseudomonas aeruginosa; details: for increase of MIC in the presence of lung surfactant: 10% Survanta vs none; for MIC, 10% Survanta: P. aeruginosa ATCC 27853, 10% Survanta; for MIC, No Survanta: P. aeruginosa ATCC 27853, no surfactant
How it was run: (§1)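 Susceptibility: microdilution MIC in CaMHB.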

[1] = tested on: P. aeruginosa FADDI-PA025; type: cell-based, Pseudomonas aeruginosa; details: MDR clinical isolate
How it was run: as §1

[2] = tested on: P. aeruginosa FADDI-PA038; type: cell-based, Pseudomonas aeruginosa; details: carbapenem-resistant isolate
How it was run: as §1

[3] = tested on: MDR clinical isolates of P. aeruginosa (n = 213, 55 carbapenem-resistant); type: cell-based, Pseudomonas aeruginosa
How it was run: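 Broth microdilution, CaMHB; MIC read as the antibacterial endpoint against ATCC reference strains and clinical isolates.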

[4] = mouse, in vivo, ip, 60 mg/kg/day

## Colistin [reference compound]
A. baumannii AB5075; H vs Cont, 1h
  logFC (Differential gene expression for all genes), Geneid ABUW_RS00005: -0.1415
  logFC (Differential gene expression for all genes), Geneid ABUW_RS00020: 0.3148
  logFC (Fold change), gene ABUW_RS00010: 0.4448
  logFC (Fold change), gene ABUW_RS00030: -0.4924
  logFC (Fold change), gene ABUW_RS00035: 1.135
  logFC (Fold change), gene recF (ABUW_RS00015): -0.2294
  log2FC, gene ABUW_RS01945 (acyl-CoA thioesterase II): 0.3504
  log2FC, gene ABUW_RS02545 (acyl-CoA thioesterase): 1.4185
  log2FC, gene ABUW_RS05045 (acyl-CoA thioesterase): 0.5564
  log2FC, gene ABUW_RS17575 (acyl-CoA thioesterase): -1.353
A. baumannii AB5075; H vs Cont, 4h
  logFC (Differential gene expression for all genes), Geneid ABUW_RS00005: -0.09217
  logFC (Differential gene expression for all genes), Geneid ABUW_RS00020: -0.1513
  logFC (Fold change), gene ABUW_RS00010: 1.069
  logFC (Fold change), gene ABUW_RS00030: -0.5349
  logFC (Fold change), gene ABUW_RS00035: 1.256
  logFC (Fold change), gene recF (ABUW_RS00015): -1.096
  log2FC, gene ABUW_RS01945 (acyl-CoA thioesterase II): -0.7138
  log2FC, gene ABUW_RS02545 (acyl-CoA thioesterase): 0.6589
  log2FC, gene ABUW_RS05045 (acyl-CoA thioesterase): 0.2411
  log2FC, gene ABUW_RS17575 (acyl-CoA thioesterase): -2.464
A. baumannii AB5075; H
  4h_1h logFC (Differential gene expression for all genes), Geneid ABUW_RS00005: -0.3521
  4h_1h logFC (Differential gene expression for all genes), Geneid ABUW_RS00010: 0.7488
  4h_1h logFC (Differential gene expression for all genes), Geneid ABUW_RS00015: -1.211
  4h_1h logFC (Differential gene expression for all genes), Geneid ABUW_RS00020: 0.2283
A. baumannii AB5075; L vs Cont, 1h
  logFC (Differential gene expression for all genes), Geneid ABUW_RS00005: -0.03172
  logFC (Differential gene expression for all genes), Geneid ABUW_RS00020: 0.1157
  logFC (Fold change), gene ABUW_RS00010: -0.05024
  logFC (Fold change), gene ABUW_RS00030: -0.1351
  logFC (Fold change), gene ABUW_RS00035: -0.09136
  logFC (Fold change), gene recF (ABUW_RS00015): -0.09027
  log2FC, gene ABUW_RS01945 (acyl-CoA thioesterase II): 0.4895
  log2FC, gene ABUW_RS02545 (acyl-CoA thioesterase): 0.2839
  log2FC, gene ABUW_RS05045 (acyl-CoA thioesterase): -0.5862
  log2FC, gene ABUW_RS17575 (acyl-CoA thioesterase): 0.3237
A. baumannii AB5075; L vs Cont, 4h
  logFC (Differential gene expression for all genes), Geneid ABUW_RS00005: -0.01117
  logFC (Differential gene expression for all genes), Geneid ABUW_RS00020: -0.1061
  logFC (Fold change), gene ABUW_RS00010: 0.1057
  logFC (Fold change), gene ABUW_RS00030: -0.4634
  logFC (Fold change), gene ABUW_RS00035: 0.03384
  logFC (Fold change), gene recF (ABUW_RS00015): -0.08717
  log2FC, gene ABUW_RS01945 (acyl-CoA thioesterase II): 0.543
  log2FC, gene ABUW_RS02545 (acyl-CoA thioesterase): -0.1794
  log2FC, gene ABUW_RS05045 (acyl-CoA thioesterase): 0.3247
  log2FC, gene ABUW_RS17575 (acyl-CoA thioesterase): -0.8383
A. baumannii AB5075; L
  4h_1h logFC (Differential gene expression for all genes), Geneid ABUW_RS00005: -0.3028
  4h_1h logFC (Differential gene expression for all genes), Geneid ABUW_RS00010: -0.2642
  4h_1h logFC (Differential gene expression for all genes), Geneid ABUW_RS00015: -0.2929
  4h_1h logFC (Differential gene expression for all genes), Geneid ABUW_RS00020: 0.3892
Swiss mice, kidney
  Kidney histopathology (SQS Score): +5 (SQS + 5 = severe damage (overall score, >60))
Swiss mice, kidney; mouse, in vivo
  Kidney histopathology, mice with the SQS score: 3/3
P. aeruginosa ATCC 27853
  MIC P. aeruginosa ATCC 27853: 0.5 µg/mL
  increase of MIC in the presence of lung surfactant: 8 fold
  MIC, 10% Survanta: 8 µg/mL
  MIC, No Survanta: 1 µg/mL
[1]
  MIC P. aeruginosa FADDI-PA025: 2 µg/mL
[2]
  MIC P. aeruginosa FADDI-PA038: 1 µg/mL

## Polymyxin B [reference compound]
Swiss mice, kidney
  Kidney histopathology (SQS Score): +5 (SQS + 5 = severe damage (overall score, >60))
Swiss mice, kidney; mouse, in vivo
  Kidney histopathology, mice with the SQS score: 3/3
Swiss mice, kidney; [4]
  Kidney histological damage: Moderate to severe
  Kidney histological damage, mice with the given grade: 6/6
P. aeruginosa ATCC 27853
  MIC P. aeruginosa ATCC 27853: 0.5 µg/mL
  increase of MIC in the presence of lung surfactant: 8 fold
  MIC, 10% Survanta: 8 µg/mL
  MIC, No Survanta: 1 µg/mL
P. aeruginosa ATCC 27853; 10% Survanta
  loss of antibacterial activity due to binding to lung surfactant: 87.5%
[1]
  MIC P. aeruginosa FADDI-PA025: 2 µg/mL
[2]
  MIC P. aeruginosa FADDI-PA038: 0.5 µg/mL
[2]; listed as PMB
  MIC P. aeruginosa FADDI-PA038: 1 µg/mL
[3]; P. aeruginosa n = 213
  MIC50: 1 µg/mL
  MIC90: 2 µg/mL
[3]; isolates with MIC 0.05 μg/mL (so in the source)
  Number of isolates: 0
[3]; isolates with MIC 0.125 μg/mL (so in the source)
  Number of isolates: 0
[3]; isolates with MIC 0.25 μg/mL (so in the source)
  Number of isolates: 1
[3]; isolates with MIC 0.5 μg/mL (so in the source)
  Number of isolates: 9
[3]; isolates with MIC 1 μg/mL (so in the source)
  Number of isolates: 99
[3]; isolates with MIC 2 μg/mL (so in the source)
  Number of isolates: 95
[3]; isolates with MIC 4 μg/mL (so in the source)
  Number of isolates: 7
[3]; isolates with MIC 8 μg/mL (so in the source)
  Number of isolates: 0
[3]; isolates with MIC 16 μg/mL (so in the source)
  Number of isolates: 2
[3]; isolates with MIC 32 μg/mL (so in the source)
  Number of isolates: 0
[3]; isolates with MIC 64 μg/mL (so in the source)
  Number of isolates: 0
[3]; isolates with MIC >64 μg/mL (so in the source)
  Number of isolates: 0
